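96-well plates; 48 h exposure; 5 concentrations. Endpoints by linear interpolation between flanking doses. Not reached: highest tested concentration assigned. GI50 is the concentration that inhibits growth by half.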 Active and inactive are the calls of the source. No stated cut-off is given here; in the data, active = GI50 up to about 1.1 µM and inactive = higher.
Assays:
Assay in all cases: NCI-60 cell line screen, 48 h
LXFL 529 = test system: LXFL 529
ACHN = test system: ACHN
IGROV-1 = test system: IGROV-1
SF-268 = test system: SF-268
A498 = test system: A498
U-251 = test system: U-251
HL-60 = test system: HL-60
DMS-273 = test system: DMS-273
EKVX = test system: EKVX
M14 = test system: M14
SK-MEL-28 = test system: SK-MEL-28
RXF 393 = test system: RXF 393
SNB-75 = test system: SNB-75
NCI-H226 = test system: NCI-H226
KM12 = test system: KM12
M19-MEL = test system: M19-MEL
CAKI-1 = test system: CAKI-1
SW-620 = test system: SW-620
NCI-H23 = test system: NCI-H23
LOX IMVI = test system: LOX IMVI
786-0 = test system: 786-0
HOP-92 = test system: HOP-92
COLO 205 = test system: COLO 205
NCI-H460 = test system: NCI-H460
SF-539 = test system: SF-539
OVCAR-5 = test system: OVCAR-5
UACC-62 = test system: UACC-62
DLD-1 = test system: DLD-1
OVCAR-8 = test system: OVCAR-8
SNB-78 = test system: SNB-78
OVCAR-4 = test system: OVCAR-4
K562 = test system: K562
SF-295 = test system: SF-295
DMS-114 = test system: DMS-114
UACC-257 = test system: UACC-257
SK-OV-3 = test system: SK-OV-3
Malme-3M = test system: Malme-3M
SK-MEL-5 = test system: SK-MEL-5
CCRF-CEM = test system: CCRF-CEM
SK-MEL-2 = test system: SK-MEL-2
OVCAR-3 = test system: OVCAR-3
UO-31 = test system: UO-31
NCI-H522 = test system: NCI-H522
SNB-19 = test system: SNB-19
HCT-116 = test system: HCT-116
HOP-62 = test system: HOP-62
HT-29 = test system: HT-29
TK-10 = test system: TK-10
A549 = test system: A549
KM-20L2 = test system: KM-20L2
SR = test system: SR
MOLT-4 = test system: MOLT-4
HCT-15 = test system: HCT-15
SN12C = test system: SN12C
DU-145 = test system: DU-145
MDA-N = test system: MDA-N
PC-3 = test system: PC-3
NCI/ADR-RES = test system: NCI/ADR-RES
BT-549 = test system: BT-549
MDA-MB-231 = test system: MDA-MB-231
HCC 2998 = test system: HCC 2998
Hs-578T = test system: Hs-578T
T47D = test system: T47D
MCF7 = test system: MCF7
MDA-MB-435 = test system: MDA-MB-435
RPMI-8226 = test system: RPMI-8226
HOP-18 = test system: HOP-18

## CCN(CC)CCNC(=O)c1ccc([N+](=O)[O-])cc1OC
LXFL 529
  GI50: > 100 µM (inactive)
ACHN
  GI50: > 100 µM (inactive)
IGROV-1
  GI50: > 100 µM (inactive)
SF-268
  GI50: > 100 µM (inactive)
A498
  GI50: > 100 µM (inactive)
U-251
  GI50: > 100 µM (inactive)
HL-60
  GI50: > 100 µM (inactive)
DMS-273
  GI50: > 100 µM (inactive)
EKVX
  GI50: > 100 µM (inactive)
M14
  GI50: > 100 µM (inactive)
SK-MEL-28
  GI50: > 100 µM (inactive)
RXF 393
  GI50: > 100 µM (inactive)
SNB-75
  GI50: > 100 µM (inactive)
NCI-H226
  GI50: > 100 µM (inactive)
KM12
  GI50: > 100 µM (inactive)
M19-MEL
  GI50: > 100 µM (inactive)
CAKI-1
  GI50: > 100 µM (inactive)
SW-620
  GI50: > 100 µM (inactive)
NCI-H23
  GI50: > 100 µM (inactive)
LOX IMVI
  GI50: > 100 µM (inactive)
786-0
  GI50: > 100 µM (inactive)
HOP-92
  GI50: > 100 µM (inactive)
COLO 205
  GI50: > 100 µM (inactive)
NCI-H460
  GI50: > 100 µM (inactive)
SF-539
  GI50: > 100 µM (inactive)
OVCAR-5
  GI50: > 100 µM (inactive)
UACC-62
  GI50: > 100 µM (inactive)
DLD-1
  GI50: > 100 µM (inactive)
OVCAR-8
  GI50: > 100 µM (inactive)
SNB-78
  GI50: > 100 µM (inactive)
OVCAR-4
  GI50: > 100 µM (inactive)
K562
  GI50: > 100 µM (inactive)
SF-295
  GI50: > 100 µM (inactive)
DMS-114
  GI50: > 100 µM (inactive)
UACC-257
  GI50: > 100 µM (inactive)
SK-OV-3
  GI50: > 100 µM (inactive)
Malme-3M
  GI50: > 100 µM (inactive)
SK-MEL-5
  GI50: > 100 µM (inactive)
CCRF-CEM
  GI50: > 100 µM (inactive)
SK-MEL-2
  GI50: > 100 µM (inactive)
OVCAR-3
  GI50: > 100 µM (inactive)
UO-31
  GI50: > 100 µM (inactive)
NCI-H522
  GI50: > 100 µM (inactive)
SNB-19
  GI50: > 100 µM (inactive)
HCT-116
  GI50: > 100 µM (inactive)
HOP-62
  GI50: > 100 µM (inactive)
HT-29
  GI50: > 100 µM (inactive)
TK-10
  GI50: > 100 µM (inactive)
A549
  GI50: > 100 µM (inactive)
KM-20L2
  GI50: > 100 µM (inactive)
SR
  GI50: > 100 µM (inactive)
MOLT-4
  GI50: > 100 µM (inactive)
HCT-15
  GI50: > 100 µM
SN12C
  GI50: > 100 µM (inactive)

## COc1ccc([N+](=O)[O-])c2c(NCCCN(C)C)c3ccccc3nc12
DU-145
  GI50: 0.126 µM (active)
ACHN
  GI50: 0.13 µM (active)
IGROV-1
  GI50: 0.05 µM (active)
SF-268
  GI50: 0.236 µM (active)
A498
  GI50: 0.0204 µM (active)
U-251
  GI50: 0.152 µM (active)
HL-60
  GI50: 0.662 µM (active)
MDA-N
  GI50: 0.425 µM (active)
EKVX
  GI50: 0.107 µM (active)
M14
  GI50: 0.183 µM (active)
PC-3
  GI50: 0.0276 µM (active)
NCI/ADR-RES
  GI50: 2.87 µM (inactive)
SK-MEL-28
  GI50: 3 µM (inactive)
RXF 393
  GI50: 0.0838 µM (active)
SNB-75
  GI50: 0.222 µM (active)
NCI-H226
  GI50: 0.225 µM (active)
KM12
  GI50: 0.0991 µM (active)
CAKI-1
  GI50: 0.333 µM (active)
BT-549
  GI50: 0.701 µM (active)
SW-620
  GI50: 0.0929 µM (active)
NCI-H23
  GI50: 0.0625 µM (active)
LOX IMVI
  GI50: 0.461 µM (active)
786-0
  GI50: 0.0778 µM (active)
HOP-92
  GI50: 0.0782 µM (active)
MDA-MB-231
  GI50: 0.466 µM (active)
COLO 205
  GI50: 0.0953 µM (active)
NCI-H460
  GI50: 0.0355 µM (active)
SF-539
  GI50: 0.308 µM (active)
OVCAR-5
  GI50: 0.272 µM (active)
HCC 2998
  GI50: < 0.0319 µM (active)
UACC-62
  GI50: 0.127 µM (active)
OVCAR-8
  GI50: 0.288 µM (active)
OVCAR-4
  GI50: 0.0354 µM (active)
K562
  GI50: 0.133 µM (active)
Hs-578T
  GI50: 0.682 µM (active)
SF-295
  GI50: 0.107 µM (active)
UACC-257
  GI50: 0.23 µM (active)
SK-OV-3
  GI50: 0.33 µM (active)
Malme-3M
  GI50: 0.155 µM (active)
T47D
  GI50: 0.2 µM (active)
SK-MEL-5
  GI50: 0.106 µM (active)
MCF7
  GI50: 0.0155 µM (active)
CCRF-CEM
  GI50: 0.546 µM (active)
SK-MEL-2
  GI50: 0.131 µM (active)
OVCAR-3
  GI50: 0.125 µM (active)
UO-31
  GI50: 0.255 µM (active)
NCI-H522
  GI50: 0.0286 µM (active)
SNB-19
  GI50: 0.202 µM (active)
MDA-MB-435
  GI50: 0.306 µM (active)
HCT-116
  GI50: 0.112 µM (active)
HOP-62
  GI50: 0.0998 µM (active)
HT-29
  GI50: 0.07 µM (active)
TK-10
  GI50: 0.399 µM (active)
A549
  GI50: 0.0843 µM (active)
SR
  GI50: < 0.01 µM (active)
MOLT-4
  GI50: 0.0326 µM (active)
HCT-15
  GI50: 0.0935 µM
RPMI-8226
  GI50: 0.218 µM (active)
SN12C
  GI50: 0.26 µM (active)

## O=C1C2C3C=C4c5ccccc5N(c5ccccc5)C4(C2C(=O)N1c1ccc([N+](=O)[O-])cc1)[C@H]1C(=O)N(c2ccc([N+](=O)[O-])cc2)C(=O)[C@@H]31 (stereo partly drawn)
ACHN
  GI50: > 100 µM (inactive)
IGROV-1
  GI50: > 100 µM (inactive)
SF-268
  GI50: > 100 µM (inactive)
A498
  GI50: > 100 µM (inactive)
U-251
  GI50: > 100 µM (inactive)
HL-60
  GI50: > 100 µM (inactive)
DMS-273
  GI50: > 100 µM (inactive)
EKVX
  GI50: > 100 µM (inactive)
M14
  GI50: > 100 µM (inactive)
SK-MEL-28
  GI50: > 100 µM (inactive)
RXF 393
  GI50: > 100 µM (inactive)
SNB-75
  GI50: 11.1 µM (inactive)
NCI-H226
  GI50: > 100 µM (inactive)
KM12
  GI50: > 100 µM (inactive)
M19-MEL
  GI50: > 100 µM (inactive)
CAKI-1
  GI50: > 100 µM (inactive)
SW-620
  GI50: > 100 µM (inactive)
NCI-H23
  GI50: > 100 µM (inactive)
LOX IMVI
  GI50: > 100 µM (inactive)
786-0
  GI50: > 100 µM (inactive)
HOP-92
  GI50: > 100 µM (inactive)
COLO 205
  GI50: > 100 µM (inactive)
NCI-H460
  GI50: > 100 µM (inactive)
SF-539
  GI50: > 100 µM (inactive)
OVCAR-5
  GI50: > 100 µM (inactive)
HCC 2998
  GI50: > 100 µM (inactive)
UACC-62
  GI50: > 100 µM (inactive)
DLD-1
  GI50: > 100 µM (inactive)
OVCAR-8
  GI50: > 100 µM (inactive)
SNB-78
  GI50: > 100 µM (inactive)
OVCAR-4
  GI50: > 100 µM (inactive)
K562
  GI50: > 100 µM (inactive)
SF-295
  GI50: > 100 µM (inactive)
DMS-114
  GI50: > 100 µM (inactive)
UACC-257
  GI50: > 100 µM (inactive)
SK-OV-3
  GI50: > 100 µM (inactive)
Malme-3M
  GI50: > 100 µM (inactive)
SK-MEL-5
  GI50: > 100 µM (inactive)
CCRF-CEM
  GI50: > 100 µM (inactive)
SK-MEL-2
  GI50: > 100 µM (inactive)
OVCAR-3
  GI50: > 100 µM (inactive)
UO-31
  GI50: > 100 µM (inactive)
NCI-H522
  GI50: > 100 µM (inactive)
SNB-19
  GI50: > 100 µM (inactive)
HCT-116
  GI50: > 100 µM (inactive)
HOP-18
  GI50: > 100 µM (inactive)
HOP-62
  GI50: > 100 µM (inactive)
HT-29
  GI50: > 100 µM (inactive)
TK-10
  GI50: > 100 µM (inactive)
A549
  GI50: > 100 µM (inactive)
KM-20L2
  GI50: > 100 µM (inactive)
MOLT-4
  GI50: > 100 µM (inactive)
HCT-15
  GI50: > 100 µM
RPMI-8226
  GI50: > 100 µM (inactive)
SN12C
  GI50: > 100 µM (inactive)

— ChEMBL document CHEMBL1201862, “PubChem BioAssay data set” (2004)
